“Also recorded” adds a separate entry of the source.
Columns and labels:
Format in all cases: cell-based, human
[1] = system: de novo protein synthesis; assay: HPG Click-iT labeling of nascent proteins; conditions: MB135-iDUX4ca myoblasts, 20-96 hours after a pulse
Experimental: Cells were incubated for 30 minutes in DMEM or RPMI media depleted for methionine and cysteine (Gibco), followed by a 1-hour incubation in methionine-depleted media supplemented with 200 μM HPG (Sigma). Cells were fixed with 4% paraformaldehyde (Electron Microscopy Sciences) diluted in PBS for 10 minutes at room temperature and stained with Click-iT HPG Alexa Fluor 488 Protein Synthesis Assay Kit (Invitrogen) according to manufacturer's protocol.

ZSCAN4 = assay: Activation of DUX4 target gene ZSCAN4, RT-qPCR; conditions: MB135 cells ± doxycycline
Experimental: (§1) All myoblast experiments were conducted in immortalized MB135 or MB200 myoblast cell lines (isolated from a control or FSHD2 subject, respectively cultured in Ham's F-10 Nutrient Mix (Gibco) supplemented with 15% fetal bovine serum (Hyclone), 100 U/100 μg/ml penicillin/streptomycin (Gibco), 1 μM dexamethasone (Sigma), and 10 ng/ml recombinant human basic fibroblast growth factor (PeproTech). To differentiate the myoblasts to myotubes, media was changed to DMEM supplemented with 10 μg/ml insulin (Sigma) and 10 μg/ml transferrin (Sigma). Cell lines containing doxycycline-inducible transgenes were additionally cultured with 2 μg/mL puromycin (Sigma). Transgenes were induced with 1 μg/mL of doxycycline (Sigma) for 4 hours prior to other treatments for a total of 20 hrs. The Kitra-SRS cells (RRID:CVCL_YI69) were provided by Dr. H. Otani and Osaka University (Nakai et al., 2019) and were cultured in DMEM supplemented with 10% fetal bovine serum (Hyclone) and 100 U/100 μg/ml penicillin/streptomycin (Gibco). Biological replicates consisted of independent but parallel experiments, such as simultaneously stimulating three cell culture plates with IFNγ. Technical replicates consisted of repeat measurements of the same biological sample, such as loading the same biological sample in triplicate for analysis by RT-qPCR.
(§2) Myoblasts were transfected with either (final concentrations) 10 μM 2′,3′-cGAMP (Sigma Aldrich), 2 μg/mL poly(I:C) (Invitrogen), or 1 μg/mL 3′ppp-dsRNA RIG-I ligand (Dan Stetson Lab, UW) using Lipofectamine 2000 according to manufacturer's protocol, or were stimulated with 1000U IFNβ (PeproTech) or 200 ng/ml IFNγ (R+D Systems) by addition directly to cell culture medium. After 16 hours of immune stimulation, RNA was collected from cells using the NucleoSpin RNA Kit (Macherey-Nagel) according to manufacturer's instructions. RNA samples were quantified by nanodrop and 1 μg of RNA per sample was treated with DNase I Amplification Grade (Thermo Fisher), and then synthesized into cDNA using the Superscript IV First-Strand Synthesis System, including oligo dT primers (Invitrogen). qPCR was run in 384-well plates on an Applied Biosystems QuantStudio 6 Flex Real-Time PCR System (ABI) and analyzed in Microsoft Excel.

ISG induction by IFNG = assay: RNA-seq of IFNG-induced genes in MB135 cells; conditions: doxycycline + IFNG; for IFNG-induced genes whose induction was suppressed more than 2-fold (percent) / IFNG-induced genes whose induction was suppressed more than 4-fold (percent): genes induced by IFNG (log 2 fold-change >3)
Experimental: RNA was extracted as described above from untreated, doxycycline-treated, IFNγ-treated, or doxycycline- and IFNγ-treated samples. RNA was submitted to the Fred Hutchinson Cancer Research Center Genomics Core for library preparation using the TruSeq3 Stranded mRNA kit (Illumina) followed by size and quality analysis by Tapestation (Agilent). Libraries were sequenced on a NextSeq P2-100 (Illumina).
Sequencing analysis was performed using R version 4.0.3 (R Core Team, 2020). Sequencing reads were trimmed using Trimmomatic (version 0.39) (Bolger et al., 2014, Trimmomatic: a flexible trimmer for Illumina sequence data. Bioinformatics 30, 2114-2120), and aligned to the Homo sapiens GRCh38 reference genome with the Rsubread aligner (Liao et al., 2019, The R package Rsubread is easier, faster, cheaper and better for alignment and quantification of RNA sequencing reads. Nucleic Acids Res 47, e47). Gene counts were analyzed using featureCounts (v2.0.1) (Liao et al., 2019, supra) and the Gencode v35 annotation file. Normalization and differential expression analysis were done with DESeq2 (v1.26.0) (Love et al., 2014, Moderated estimation of fold change and dispersion for RNA-seq data with DESeq2. Genome Biol 15, 550).

MEL375 cells = assay: IFNG-induced MHC class I in MEL375 melanoma cells (immunoblot, FACS)
Experimental: Expression of DUX4-CTD fragment suppresses interferon-induced MHC Class I expression and requires intact (L)LxxL(L) motifs. Human melanoma MEL375 cells were transduced with doxycycline inducible vectors expressing the 3×Flag-nls-tagged DUX4 CTD-154-424 (iDUX4-CTD) (SEQ ID NOS: 8-9) or the similar constructs with a mutation in the first (L)LxxL(L) motif and a deletion of the second (L)LxxL(L) motif (iDUX4-mL1dL2) (SEQ ID NOS: 10-11). Cells were treated with doxycycline (1 μg/ml) for four hours followed by the addition of interferon-gamma treatment for 16 hrs (50 ng/ml).

[2] = system: interferon-stimulated genes IFIH1, ISG20, CXCL9, and CD74; assay: IFNG induction of interferon-stimulated genes, RT-qPCR in MB135 cells with doxycycline-inducible transgenes; conditions: for suppression of IFNG induction of ISGs (IFIH1, ISG20, CXCL9, CD74): MB135 cells, doxycycline-induced transgene, continuous protocol, IFNG 16 h
Experimental: as §1, §2

[3] = 113 genes induced by IFNG (log 2 fold-change >3)

Substance	nascent protein synthesis by HPG labeling [1]	transcriptional activation of DUX4 target gene ZSCAN4 (ZSCAN4)	transcriptional activation of DUX4 target gene ZSCAN4 (ZSCAN4; listed as iDUX4-CA)	transcriptional activation of DUX4 target gene ZSCAN4 (ZSCAN4; listed as wild-type DUX4)	IFNG-induced genes whose induction was suppressed more than 2-fold (number) (ISG induction by IFNG; [3]) [genes]	IFNG-induced genes whose induction was suppressed more than 4-fold (number) (ISG induction by IFNG; [3]) [genes]	IFNG-induced genes whose induction was suppressed more than 2-fold (percent) (ISG induction by IFNG) [%]	IFNG-induced genes whose induction was suppressed more than 4-fold (percent) (ISG induction by IFNG) [%]	suppression of MHC class I proteins in MEL375 cells, pulse protocol (MEL375 cells; Mel375iDUX4)	suppression of IFNG induction of ISGs (IFIH1, ISG20, CXCL9, CD74) [2]	suppression of IFNG induction of ISGs (IFIH1, ISG20, CXCL9, CD74) ([2]; listed as iDUX4-CA)	MHC surface protein expression by FACS (MEL375 cells; MEL375 cells, doxycycline then IFNG)	suppression of IFNG-induced MHC class I proteins in MEL375 cells (MEL375 cells; doxycycline 1 μg/ml 4 h then IFNG 50 ng/ml 16 hrs)	suppression of RNA induction of GBP1, IDO1, CXCL10 by IFNG ([2]; MB135-iDUX4-CTD cells used for STAT1 ChIP)	suppression of IFNG induction of ISGs (IFIH1, ISG20, CXCL9, CD74) ([2]; listed as iDUX4-CTD)
DUX4: human DUX4 protein SEQ ID NO:3 expressed from doxycycline inducible codon altered transgene SEQ ID NO:2	dramatic reduction in HPG-labeled peptides; also recorded: peak suppression occurred forty-four hours after a pulse of DUX4; also recorded: HPG signal largely recovered by ninety-two hours	strongly induced	robust activator of its target gene ZSCAN4	Only the wild-type DUX4 shows transcriptional activation of its target gene	102	76	90	67	prolonged suppression of MHC class I proteins in the MEL375 melanoma cell line	blocks induction of ISGs IFIH1 and ISG20 by IFNG and IFNB1; also recorded: robustly blocked	suppresses IFNG induction of all for ISGs	–	–	–	–
longCTD: 3×FLAG tag and nls in frame with carboxyterminal 271 amino acids of DUX4 (aa154-424), SEQ ID NOS: 8-9	–	transcriptionally silent	–	–	–	–	90	52	–	sufficient to block most or all ISG induction by IFNG; also recorded: suppresses three of the four IFNG-induced genes	–	decreased MHC surface protein expression	suppresses IFNG induction of MHC proteins	robustly suppressed the RNA induction by IFNG	equally suppressed activation of ISGs

Source: patent US20250339531A1, “DUX4 POLYPEPTIDES AND NUCLEIC ACIDS FOR TREATING INFLAMMATORY AND AUTOIMMUNE CONDITIONS” (Fred Hutchinson Cancer Center, priority 2021, published 2025)
